# Measurements published in patent publication US20130209985A1, “SAMPLE COLLECTION DEVICES WITH BLOOD STABILIZING AGENTS” (priority 2012, published 2013).
# What was measured:
# [1] = test system: CD62P (P-selectin) surface expression on platelets; assay: Whole blood flow cytometry of platelet CD62P surface expression (α-granule release); format: cell-based; conditions: for median PE fluorescence (CD62P) / frequency of CD62P expression (CD62P+ platelets): Example 1; for CD62P expression: Example 2, iloprost 0.5 μM where added, mean of 3 subjects; for MFI Over Time (CD62P, all platelet events): Example 3, 10 subjects
# Source text: (§1) Platelet activation can result in a robust and rapid release of α-granules, dense granules, and lysosomes, the contents of which serve to promote a variety of autocrine and paracrine signal transduction events. CD62P (P-selectin) is an adhesion molecule that is transiently expressed on the platelet plasma membrane following α-granule release and can mediate platelet-leukocyte aggregates via ligation with leukocyte expressed P-selectin glycoprotein ligand 1 (PSGL-1/CD162). Dense granule and lysosome release can be measured, although not distinguished, with CD63 surface expression.
# (§2) The effect of EDTA on platelet activation, as judged by CD62P and CD63 surface expression, was evaluated in the presence or absence of the platelet stabilization agent (iloprost). Whole blood was collected into tubes containing EDTA or EDTA with iloprost at 0.5, 5 and 50 μM final concentration. Antibody cocktails containing previously determined amounts of αCD61 PerCP, αCD62P PE, αCD63 Alexa Fluor® 647, and/or appropriate isotype controls were added to a conical bottom micro titer plate. A modified HEPES-Tyrode's buffer was used to equilibrate the final volume to 100 μL for each staining reaction. Platelet surface staining was performed by adding 5 μL of whole blood to the appropriate staining mix and incubating at RT under dark conditions for 15 minutes. Afterwards, the entire reaction was transferred to 5 mL round bottom polystyrene snap cap tubes containing 1 mL of HEPES-Tyrode's buffer for a final dilution of each sample. Samples were briefly vortexed and data was acquired using a BD FACScalibur instrument. FSC and SSC settings were established on the log scale in order to discern platelet size and morphology from RBC and WBC populations. In order to further discriminate platelet-specific events, a PerCP alone control was used to establish a CD61^+ gate. Since CD63 is not a platelet specific marker it was necessary to further gate on the single platelet morphology population to avoid a CD63 signature from the platelet-bound leukocytes. The PerCP alone control was also used to set fluorescence detector voltages for CD62P^−/CD63^− populations. Once voltage and compensation settings were finalized, 10,000 CD61^+/single platelet events were acquired for each test sample.
# The effect of iloprost on platelet activation was studied in the presence of strong platelet-activating agents, ADP and thrombin-receptor activating peptide (TRAP). Platelet stimulations were performed by adding 300 μL blood to micro-centrifuge tubes containing 10 μL of saline (0.85%), ADP, or TRAP-6 and incubating for approximately 2 min at RT. Final concentrations of ADP and TRAP-6 were 6.5 μM and 32 μM, respectively. Afterwards, whole blood flow cytometry was performed as described above. Blood collection and flow cytometry was performed as described in example 1.
# The effect of iloprost on platelet degranulation was measured in EDTA and EDTA/protease inhibitor background. Whole blood was collected into tubes containing EDTA, EDTA with iloprost, a protease inhibitor cocktail (“PIC”, which included one protease inhibitor from each class of inhibitor described in Table II in U.S. Pat. No. 7,309,468), and the cocktail with iloprost. Whole blood flow cytometry to measure CD62P expression was performed as described in example 1.
# [2] = test system: CD63 surface expression on platelets; assay: Whole blood flow cytometry of platelet CD63 surface expression (dense granule/lysosome release); format: cell-based; conditions: Example 2; for CD63 surface expression: EDTA without iloprost
# Source text: as §1
# as §2, with “Since CD63 is not a platelet specific marker it was necessary to further gate on the single platelet morphology population to avoid a CD63 signature from the platelet-bound leukocytes.” left out, “Once voltage and compensation settings were finalized, 10,000 CD61^+/single platelet events were acquired for each test sample.” left out
# [3] = molecular target: acetylcholinesterase (AChE) (Homo sapiens, UniProt P22303); conditions: read-out: Ki for AChE; cited from earlier work
# acetylcholinesterase (AChE), sequence (P22303 32-614, species assumed): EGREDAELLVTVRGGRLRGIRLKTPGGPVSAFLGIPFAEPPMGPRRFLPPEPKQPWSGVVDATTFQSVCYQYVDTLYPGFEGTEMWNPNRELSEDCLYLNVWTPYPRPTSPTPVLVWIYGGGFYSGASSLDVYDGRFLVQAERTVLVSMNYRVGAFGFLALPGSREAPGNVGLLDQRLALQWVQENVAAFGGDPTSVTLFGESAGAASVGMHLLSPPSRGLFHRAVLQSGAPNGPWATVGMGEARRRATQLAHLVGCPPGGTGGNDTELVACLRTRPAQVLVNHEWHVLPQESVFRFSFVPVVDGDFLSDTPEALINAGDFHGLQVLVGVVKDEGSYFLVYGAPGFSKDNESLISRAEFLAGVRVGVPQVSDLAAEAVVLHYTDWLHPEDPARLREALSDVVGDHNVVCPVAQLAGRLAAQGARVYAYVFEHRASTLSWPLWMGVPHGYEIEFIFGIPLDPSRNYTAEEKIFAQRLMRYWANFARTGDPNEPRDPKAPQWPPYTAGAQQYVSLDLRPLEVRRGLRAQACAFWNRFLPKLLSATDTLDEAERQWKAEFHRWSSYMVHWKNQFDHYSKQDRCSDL
# [4] = test system: platelet-leukocyte aggregates; assay: Leukocyte-platelet aggregates by flow cytometry (αCD61/αCD45); format: cell-based; conditions: t=0, 4, 24 and 144 hr of sample dwell; versus EDTA alone; 6 subjects
# Source text: Blood was collected as described in example 1. Antibody cocktails containing previously determined amounts of αCD61 (platelet marker), αCD45 (leukocyte marker) and/or appropriate isotype controls were used to detect the platelet-leukocyte aggregates at t=0, 4, 24 and 144 hr of sample dwell with the use of flow cytometry as described in example 1. […] Data representative of 6 subjects.
# [5] = test system: platelets (platelet clumping); assay: Complete blood count and hematology parameters, Sysmex XE-2100; format: cell-based; conditions: compared to EDTA alone
# IL-8 (CXCL8) = assay: Plasma biomarker release, ELISA; format: cell-based; conditions: EDTA with iloprost versus EDTA alone
# Method: (§3) Blood was collected as described in example 1. Plasma was prepared at indicated timepoints (0, 2, 8 and 24 hr sample dwell) by centrifuging the tubes at 3000 rcf for 10 min. and was used to measure levels of PDGFa/a, TGFβ1, VEGF, IL-8 (CXCL8), and RANTES (CCL5) using commercially available ELISA kits, per manufacturer's instructions.
# PDGFa/a = assay: Plasma biomarker release, ELISA; format: cell-based; conditions: 0, 2, 8 and 24 hr sample dwell; relative to EDTA alone
# Method: as §3
# RANTES (CCL5) = assay: Plasma biomarker release, ELISA; format: cell-based; conditions: 0, 2, 8 and 24 hr sample dwell; relative to EDTA alone
# Method: as §3
# TGFβ1 = assay: Plasma biomarker release, ELISA; format: cell-based; conditions: 0, 2, 8 and 24 hr sample dwell; relative to EDTA alone
# Method: as §3
# VEGF = assay: Plasma biomarker release, ELISA; format: cell-based; conditions: 0, 2, 8 and 24 hr sample dwell; relative to EDTA alone
# Method: as §3
# [6] = whole blood in EDTA, iloprost 0.5 μM
# [7] = whole blood in EDTA, iloprost 5 μM
# [8] = whole blood in EDTA, iloprost 50 μM
smiles,measurement,setting,value
"O=C(O)CN(CCN(CC(=O)O)CC(=O)O)CC(=O)O [EDTA, Ethylenediamine tetraacetic acid]",median PE fluorescence (CD62P),[1]; whole blood in EDTA alone,44.7
same,frequency of CD62P expression (CD62P+ platelets),"[1]; whole blood in EDTA alone, no iloprost",44.7%
same,CD62P expression,[1]; ADP 6.5 μM activated,85.1%
same,CD62P expression,[1]; TRAP-6 32 μM activated,99.4%
same,CD62P expression,[1]; resting samples (saline),44.6%
same,"MFI Over Time (CD62P, all platelet events)",[1]; 0 hrs sample dwell,20.21
same,"MFI Over Time (CD62P, all platelet events)",[1]; 2 hrs sample dwell,42.66
same,"MFI Over Time (CD62P, all platelet events)",[1]; 8 hrs sample dwell,33.14
same,"MFI Over Time (CD62P, all platelet events)",[1]; 24 hrs sample dwell,63.02
same,"MFI (CD62P, all platelet events)","[1]; Example 10, 5 subjects",171.56
same,CD63 surface expression,[2]; ADP 6.5 μM,7.67%
same,CD63 expression,"[2]; TRAP-6 32 μM stimulated, iloprost 0.5, 5, 50 μM where added",69.3%
same,CD63 surface expression,[2]; unstimulated,2.13%
"CCC1=CC2Cc3nc4cc(Cl)ccc4c(N)c3C(C1)C2 [Huprine X, (1S)-7-chloro-15-ethyl-10-azatetracyclo[11.3.1.0̂{2,11}.0̂{4,9}]heptadeca-2(11),3,5,7,9,14-hexane-3-amine]",Ki,[3],0.026 nM
CC#CCC(C)[C@H](O)/C=C/[C@@H]1[C@H]2C/C(=C/CCCC(=O)O)C[C@H]2C[C@H]1O (some centres unmarked) [iloprost],frequency of CD62P expression (CD62P+ platelets),[1]; [6],15.0%
same,median PE fluorescence (CD62P),[1]; [6],7.31
same,frequency of CD62P expression (CD62P+ platelets),[1]; [7],14.1%
same,median PE fluorescence (CD62P),[1]; [7],7.12
same,frequency of CD62P expression (CD62P+ platelets),[1]; [8],13.9%
same,median PE fluorescence (CD62P),[1]; [8],7.06
same,CD62P expression,[1]; ADP 6.5 μM activated,17.3%
same,CD62P expression,[1]; TRAP-6 32 μM activated,33.4%
same,CD62P expression,[1]; resting samples (saline),15.0%
same,percentage of CD62+ events,"[1]; Example 10, both EDTA and PIC backgrounds, 5 subjects",reduced
same,percentage of leukocyte-bound platelets,[4],reduced
same,mean platelet volume (MPV),"[5]; p<0.001, Paired Test",lower
same,decrease in platelet clumps,[5]; study of 300 normal healthy subjects,40%
same,expression of IL-8 in plasma,IL-8 (CXCL8),similar
same,expression of PDGFa/a in plasma,PDGFa/a,reduced
same,expression of RANTES in plasma,RANTES (CCL5),reduced
same,expression of TGFβ1 in plasma,TGFβ1,reduced
same,expression of VEGF in plasma,VEGF,reduced
